The assay deals with T1, human GPR119 (Homo sapiens, UniProt Q8TDV5).
T1 construct: expression vector for human GPR119 cDNA (Acc. No. NP_848566); expressed in transfected cells; Min-6/hGPR119
T1 sequence (Q8TDV5 1-335): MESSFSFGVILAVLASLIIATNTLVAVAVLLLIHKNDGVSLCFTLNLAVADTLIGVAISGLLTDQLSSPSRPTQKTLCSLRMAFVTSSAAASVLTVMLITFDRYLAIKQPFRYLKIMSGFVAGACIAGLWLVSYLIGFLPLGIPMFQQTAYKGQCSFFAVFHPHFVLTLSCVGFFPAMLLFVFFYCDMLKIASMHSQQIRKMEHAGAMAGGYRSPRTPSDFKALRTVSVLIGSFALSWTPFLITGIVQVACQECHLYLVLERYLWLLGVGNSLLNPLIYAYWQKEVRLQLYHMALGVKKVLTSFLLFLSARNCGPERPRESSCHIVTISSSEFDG
Kind of assay: AlphaScreen cAMP assay in MIN6 cells stably transfected with human GPR119. To be noted: Min-6/hGPR119 cells, 45 min at room temperature. In kind it is cell-based. Summed up: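 cAMP accumulation quantified by AlphaScreen after 45 min compound stimulation at about 20 °C. Stimulation buffer: pH 7.4 HEPES saline with 0.5 mM IBMX, 0.1% BSA, 1% DMSO final. Cells: MIN6 stably transfected with human GPR119, 10000/well, cultured 24 h beforehand.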
As to `CC(C)(C)OC(=O)N1CCC(N(C(=O)c2cnc(-c3ccc(C(=O)NCCn4ccc(C5CC5)n4)c(F)c3)nc2)C2CC2)CC1` [Example 169, 4-[Cyclopropyl-(2-{4-[2-(3-cyclopropyl-pyrazol-1-yl)-ethylcarbamoyl]-3-fluoro-phenyl}-pyrimidine-5-carbonyl)-amino]-piperidine-1-carboxylic acid tert-butyl ester], the EC50 stood at 179 nM.

Compound `CN(Cc1ccncc1)C(=O)c1ccc(-c2ncc(C(=O)N(C3CC3)C3CCN(C(=O)OC(C)(C)C)CC3)cn2)cc1` [Example 170, 4-(Cyclopropyl-{2-[4-(methyl-pyridin-4-ylmethyl-carbamoyl)-phenyl]-pyrimidine-5-carbonyl}-amino)-piperidine-1-carboxylic acid tert-butyl ester] came in with a 50% effective concentration (EC50) of 208 nM.

For `CC(C)(C)OC(=O)N1CCC(N(C(=O)c2cnc(-c3ccc(C(=O)NC4CCC(O)CC4)cc3)nc2)C2CC2)CC1` (stereo not drawn) [Example 171, 4-(Cyclopropyl-{2-[4-(4-hydroxy-cyclohexylcarbamoyl)-phenyl]-pyrimidine-5-carbonyl}-amino)-piperidine-1-carboxylic acid tert-butyl ester], a half-maximal effect (EC50) was put at 383 nM.

Compound `COCC(C)N(C)C(=O)c1ccc(-c2ncc(C(=O)N(C3CC3)C3CCN(C(=O)OC(C)(C)C)CC3)cn2)cc1` (stereo not drawn) [Example 172, 4-[Cyclopropyl-(2-{4-[(2-methoxy-1-methyl-ethyl)-methyl-carbamoyl]-phenyl}-pyrimidine-5-carbonyl)-amino]-piperidine-1-carboxylic acid tert-butyl ester] displayed a concentration for a half-maximal effect (EC50) of 226 nM.

`COC(C)CN(C)C(=O)c1ccc(-c2ncc(C(=O)N(C3CC3)C3CCN(C(=O)OC(C)(C)C)CC3)cn2)cc1` (stereo not drawn) [Example 173, 4-[Cyclopropyl-(2-{4-[(2-methoxy-propyl)-methyl-carbamoyl]-phenyl}-pyrimidine-5-carbonyl)-amino]-piperidine-1-carboxylic acid tert-butyl ester] had a half-maximal effective concentration (EC50) of 234 nM.

Compound `COc1ccc(NC(=O)c2ccc(-c3ncc(C(=O)N(C4CC4)C4CCN(C(=O)OC(C)(C)C)CC4)cn3)cc2)cn1` [Example 174, 4-(Cyclopropyl-{2-[4-(6-methoxy-pyridin-3-ylcarbamoyl)-phenyl]-pyrimidine-5-carbonyl}-amino)-piperidine-1-carboxylic acid tert-butyl ester] returned an EC50 of 170 nM.

Take `CCOCCNC(=O)c1ccc(-c2ncc(C(=O)N(C3CC3)C3CCN(C(=O)OC(C)(C)C)CC3)cn2)cc1` [Example 175, 4-(Cyclopropyl-{2-[4-(2-ethoxy-ethylcarbamoyl)-phenyl]-pyrimidine-5-carbonyl}-amino)-piperidine-1-carboxylic acid tert-butyl ester]: the concentration for a half-maximal effect (EC50) worked out at 165 nM.

Consider `CC(C)(C)OC(=O)N1CCC(N(C(=O)c2cnc(-c3ccc(C(=O)Nc4ccc(CO)cc4)cc3)nc2)C2CC2)CC1` [Example 176, 4-(Cyclopropyl-{2-[4-(4-hydroxymethyl-phenylcarbamoyl)-phenyl]-pyrimidine-5-carbonyl}-amino)-piperidine-1-carboxylic acid tert-butyl ester], for which it took 346 nM to reach a half-maximal effect (EC50).

As to `CN(CCC#N)C(=O)c1ccc(-c2ncc(C(=O)N(C3CC3)C3CCN(C(=O)OC(C)(C)C)CC3)cn2)cc1` [Example 177, 4-[(2-{4-[(2-Cyano-ethyl)-methyl-carbamoyl]-phenyl}-pyrimidine-5-carbonyl)-cyclopropyl-amino]-piperidine-1-carboxylic acid tert-butyl ester], the EC50 amounted to 456 nM.

Compound `CC(C)(C)OC(=O)N1CCC(N(C(=O)c2cnc(-c3ccc(C(=O)N4CCCOCC4)cc3)nc2)C2CC2)CC1` [Example 178, 4-(Cyclopropyl-{2-[4-([1,4]oxazepane-4-carbonyl)-phenyl]-pyrimidine-5-carbonyl}-amino)-piperidine-1-carboxylic acid tert-butyl ester] displayed a concentration for a half-maximal effect (EC50) of 237 nM.

The compound `CO[C@@H]1CCN(C(=O)c2ccc(-c3ncc(C(=O)N(C4CC4)C4CCN(C(=O)OC(C)(C)C)CC4)cn3)cc2)C1` [Example 179, 4-(Cyclopropyl-{2-[4-(3-methoxy-pyrrolidine-1-carbonyl)-phenyl]-pyrimidine-5-carbonyl}-amino)-piperidine-1-carboxylic acid tert-butyl ester] had a half-maximal effective concentration (EC50) of 338 nM.

As to `CC(C)(C)OC(=O)N1CCC(N(C(=O)c2cnc(-c3ccc(CC(=O)Nc4ccccc4)cc3)nc2)C2CC2)CC1` [Example 180, 4-{Cyclopropyl-[2-(4-phenylcarbamoylmethyl-phenyl)-pyrimidine-5-carbonyl]-amino}-piperidine-1-carboxylic acid tert-butyl ester], the response was half-maximal at 289 nM (EC50).

`COC1CCN(C(=O)c2ccc(-c3ncc(C(=O)N(C4CC4)C4CCN(C(=O)OC(C)(C)C)CC4)cn3)cc2)CC1` [Example 181, 4-(Cyclopropyl-{2-[4-(4-methoxy-piperidine-1-carbonyl)-phenyl]-pyrimidine-5-carbonyl}-amino)-piperidine-1-carboxylic acid tert-butyl ester] showed a concentration giving a half-maximal response (EC50) of 206 nM.

Regarding `COCC1CCCCN1C(=O)c1ccc(-c2ncc(C(=O)N(C3CC3)C3CCN(C(=O)OC(C)(C)C)CC3)cn2)cc1` (stereo not drawn) [Example 182, 4-(Cyclopropyl-{2-[4-(2-methoxymethyl-piperidine-1-carbonyl)-phenyl]-pyrimidine-5-carbonyl}-amino)-piperidine-1-carboxylic acid tert-butyl ester], the concentration for a half-maximal effect (EC50) was 319 nM.

With `CC(C)(C)OC(=O)N1CCC(N(C(=O)c2cnc(-c3ccc(C(=O)Nc4ccccc4)cc3)nc2)C2CC2)CC1` [Example 183, 4-{Cyclopropyl-[2-(4-phenylcarbamoyl-phenyl)-pyrimidine-5-carbonyl]-amino}-piperidine-1-carboxylic acid tert-butyl ester], the EC50 was 63 nM.

Compound `CC(C)(C)OC(=O)N1CCC(N(C(=O)c2cnc(-c3ccc(CC(=O)N4CC(F)(F)C4)cc3)nc2)C2CC2)CC1` [Example 184, 4-[Cyclopropyl-(2-{4-[2-(3,3-difluoro-azetidin-1-yl)-2-oxo-ethyl]-phenyl}-pyrimidine-5-carbonyl)-amino]-piperidine-1-carboxylic acid tert-butyl ester] displayed a concentration giving a half-maximal response (EC50) of 149 nM.

With `COCc1sc(NC(=O)c2ccc(-c3ncc(C(=O)N(C4CC4)C4CCN(C(=O)OC(C)(C)C)CC4)cn3)cc2)nc1C` [Example 185, 4-(Cyclopropyl-{2-[4-(5-methoxymethyl-4-methyl-thiazol-2-ylcarbamoyl)-phenyl]-pyrimidine-5-carbonyl}-amino)-piperidine-1-carboxylic acid tert-butyl ester], the EC50 stood at 390 nM.

The compound `CN(CC1(C)COC1)C(=O)Cc1ccc(-c2ncc(C(=O)N(C3CC3)C3CCN(C(=O)OC(C)(C)C)CC3)cn2)cc1` [Example 186, 4-{Cyclopropyl-[2-(4-{[methyl-(3-methyl-oxetan-3-ylmethyl)-carbamoyl]-methyl}-phenyl)-pyrimidine-5-carbonyl]-amino}-piperidine-1-carboxylic acid tert-butyl ester] registered an EC50 of 617 nM.

Take `CC(C)(C)OC(=O)N1CCC(N(C(=O)c2cnc(-c3ccc(C(=O)N4CC(F)(F)C4)cc3)nc2)C2CC2)CC1` [Example 187, 4-(Cyclopropyl-{2-[4-(3,3-difluoro-azetidine-1-carbonyl)-phenyl]-pyrimidine-5-carbonyl}-amino)-piperidine-1-carboxylic acid tert-butyl ester]: the EC50 came out at 122 nM.

`COc1ccc(NC(=O)Cc2ccc(-c3ncc(C(=O)N(C4CC4)C4CCN(C(=O)OC(C)(C)C)CC4)cn3)cc2)c(OC)c1` [Example 188, 4-[Cyclopropyl-(2-{4-[(2,4-dimethoxy-phenylcarbamoyl)-methyl]-phenyl}-pyrimidine-5-carbonyl)-amino]-piperidine-1-carboxylic acid tert-butyl ester]: the EC50 is 311 nM.

For `CC(C)(C)OC(=O)N1CCC(N(C(=O)c2cnc(-c3ccc(CC(=O)NC[C@H]4CCCC[C@H]4O)cc3)nc2)C2CC2)CC1` [Example 189], it took 434 nM to reach a half-maximal effect (EC50).

On to `CC(C)(C)OC(=O)N1CCC(N(C(=O)c2cnc(-c3ccc(C(=O)N4CCCC(O)C4)cc3)nc2)C2CC2)CC1` (stereo not drawn) [Example 190, 4-(Cyclopropyl-{2-[4-(3-hydroxy-piperidine-1-carbonyl)-phenyl]-pyrimidine-5-carbonyl}-amino)-piperidine-1-carboxylic acid tert-buyl ester], for which the concentration giving a half-maximal response (EC50) was 820 nM.

The compound `CC(C)(C)OC(=O)N1CCC(N(C(=O)c2cnc(-c3ccc(CC(=O)NCCOC(F)(F)F)cc3)nc2)C2CC2)CC1` [Example 191, 4-[Cyclopropyl-(2-{4-[(2-trifluoromethoxy-ethylcarbamoyl)-methyl]-phenyl}-pyrimidine-5-carbonyl)-amino]-piperidine-1-carboxylic acid tert-butyl ester] returned an EC50 of 420 nM.

Regarding `CC(C)(C)OC(=O)N1CCC(N(C(=O)c2cnc(-c3ccc(CC(=O)N4CCCOCC4)cc3)nc2)C2CC2)CC1` [Example 192, 4-(Cyclopropyl-{2-[4-(2-[1,4]oxazepan-4-yl-2-oxo-ethyl)-phenyl]-pyrimidine-5-carbonyl}-amino)-piperidine-1-carboxylic acid tert-butyl ester], the EC50 was 421 nM.

Values taken from patent US20140045823A1 (Neurocrine Biosciences, Inc., priority 2012, published 2014).
